Test results reported in patent US20120211373A1, “MICROFLUIDIC SYSTEM FOR MEASURING CELL BARRIER FUNCTION” (THE REGENTS OF THE UNIVERSITY OF MICHIGAN, priority 2011, published 2012).

How the values were obtained:
[1] = system: b.End3 monolayers; assay: Paracellular permeability across b.End3 monolayers in transwells and layered microfluidic devices
Description: The permeability of [^14C]-mannitol as a function of days across b.End3 cells cultured in transwells and layered microfluidic channels was measured. […] Consequently, mannitol has been routinely used to assess the paracellular permeability of epithelial and endothelial monolayers.
Permeability experiments were performed at 3, 6, 9, 12, 15, 18, and 21 days in culture for all three marker molecules with five replicates for both the transwells and the layered microfluidic devices. Briefly, cells grown in both the transwells and the layered microfluidic devices under static condition were removed from the incubator and washed twice by replacing culture medium with PBS solution. PBS solutions were then aspirated and replaced by the designated solution with radioactively labeled marker molecules at the apical (top) compartment. All transwells and layered microfluidic devices were then placed onto the shaker at 100 rpm inside the incubator at 37° C., 95% air, and 5% CO2 for a total of 60 minutes. At every 10 minute interval, the transwells and the layered microfluidic devices were taken out of the incubator; the PBS solutions from the basolateral compartments were collected and replaced by fresh PBS solutions. At the end of the 1 hour incubation time, the solutions in both the apical and basolateral compartments were collected. All the samples collected during the experiments were measured using liquid scintillation counter which evaluates the radioactivity of each sample in the unit of count per minute (CPM). CPMs from all samples are then converted into concentration using the standard dilution scheme.
The permeability of a given molecule across the monolayer was calculated by suing a derived form of a differential equation based on Fick's Law: […]
The unit of measurement cm/s for permeability coefficient is commonly used.

[2] = system: b.END.3 cell monolayer; assay: TEER / impedance of b.END.3 cell monolayer after chemical treatment in microfluidic chip; type: cell-based, mouse
Description: Cell Seeding and Culture. Epithelial (MDCK-2) and endothelial (b.END.3) cell lines were selected because they offered well characterized and accepted TEER values to compare with the experimental results. […] All cell lines were cultured in endothelial growth media (DMEM with 10% fetal bovine serum and 1% penicillin/streptomycin) prior to seeding in the microfluidic chip. The microfluidic chip was exposed to plasma oxygen for 5 min to make hydrophilic. Prior to cell seeding, fibronectin solution (Invitrogen) at a concentration of 100 μg/mL in phosphate buffered saline (PBS) was injected into the upper (endothelial) channel to promote cell adhesion. The lower channel was preloaded with growth media. […]
Resolving TEER from Circuit Model. In order to resolve the TEER value from the experimental impedance spectra, the control impedance spectra (taken from the same chip just before cell seeding) was subtracted from the measured impedance spectra (with cells) to eliminate the effect from electrolyte, membrane, and electrode-electrolyte interfaces and simplify the analysis. […]

Molecule | lower permeability in layered microfluidic channels compared to transwells ([1]; Example 2, b.End3, as a function of days in culture (FIG. 11)) [fold] | lower permeability across b.End3 monolayers in layered microfluidic devices compared to transwells ([1]; Example 5, after 9 days in culture (FIG. 11A)) [fold] | permeability relative to the large markers in layered microfluidic devices (size selectivity) ([1]; day 3 and day 6 in culture (FIG. 11E)) | impedance of the entire system following treatment ([2]; all frequency points, 30 min, 0.1% in DMEM) | TEER (paracellular resistance) after treatment ([2]; b.END.3 monolayer treated 30 min with 0.1% in DMEM, before treatment 161.51±0.755 Ωcm^2)
OC[C@@H](O)[C@@H](O)[C@H](O)[C@H](O)CO [[^14C]-mannitol, [^14C]-D-Mannitol] | 15 | 10 | higher permeability | – | –
TritonX-100 | – | – | – | decreased significantly | 39.73±1.925 Ωcm^2
